Test results: patent US20240246964A1 (Arbutus Biopharma Corporation, priority 2021, published 2024)
Each block holds one compound with its values, some of them ahead of it.

How the values were obtained:
[1] = biological target: PD-L1 His protein / PD-1 Fc protein (Homo sapiens (Human), UniProt Q9NZQ7); assay: HTRF Assay (PD-1/PD-L1 interaction); type: binding; details: PD-L1 His 6 nM, PD-1 Fc 6 nM
human PD-L1 = human PD-L1 (Homo sapiens (Human), UniProt Q9NZQ7); assay: T cell activation luciferase reporter cell culture system (T Cell Activation Assay); type: cell-based; details: luciferase reporter assay; PD-L1 aAPC/CHO-K1 cells with PD-1 effector Jurkat T cells
human PD-L1, sequence (Q9NZQ7 19-290): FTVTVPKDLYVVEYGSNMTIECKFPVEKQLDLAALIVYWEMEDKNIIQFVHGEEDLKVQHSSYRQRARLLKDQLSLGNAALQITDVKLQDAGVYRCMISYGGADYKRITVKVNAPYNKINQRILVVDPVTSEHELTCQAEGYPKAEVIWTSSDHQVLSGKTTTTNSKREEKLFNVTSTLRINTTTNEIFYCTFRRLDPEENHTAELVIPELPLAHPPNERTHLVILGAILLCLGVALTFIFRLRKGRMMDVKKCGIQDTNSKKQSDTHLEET

PD-L1 His protein / PD-1 Fc protein, sequence (Q9NZQ7 19-238): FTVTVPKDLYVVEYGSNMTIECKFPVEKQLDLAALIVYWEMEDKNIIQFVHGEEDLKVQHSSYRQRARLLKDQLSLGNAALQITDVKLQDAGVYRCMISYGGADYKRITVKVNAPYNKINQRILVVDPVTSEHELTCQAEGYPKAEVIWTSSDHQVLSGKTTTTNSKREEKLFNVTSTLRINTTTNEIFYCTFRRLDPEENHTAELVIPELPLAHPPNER

SMILES: COc1cc(-c2nccc(-c3cccc(-c4ccc(CN5CC6(CNC(=O)C6)C5)c(OC)n4)c3Cl)c2Cl)ccc1CN1CCC(NC(C)=O)CC1 [Example 400, N-(1-(4-(3-chloro-4-(2-chloro-3-(6-methoxy-5-((7-oxo-2,6-diazaspiro[3.4]-octan-2-yl)methyl)pyridin-2-yl)-phenyl)pyridin-2-yl)-2-methoxybenzyl)piperidin-4-yl)acetamide]
- IC50 [1]: 0.272 nM
- EC50 (human PD-L1): 16.4 nM

SMILES: COc1cc(-c2nccc(-c3cccc(-c4ccc(CNC[C@H]5CNC(=O)C5)c(OC)n4)c3Cl)c2Cl)ccc1CNC[C@H]1CNC(=O)C1 [Example 405, (S)-4-((((6-(2-Chloro-3-(3-chloro-2-(3-methoxy-4-(((((S)-5-oxopyrrolidin-3-yl)methyl)amino)methyl)phenyl)pyridin-4-yl)phenyl)-2-methoxypyridin-3-yl)methyl)amino)methyl)pyrrolidin-2-one]
- IC50 [1]: 0.237 nM
- EC50 (human PD-L1): 24 nM

SMILES: COCC(=O)N1CCC(NCc2ccc(-c3nccc(-c4cccc(-c5ccc(CNC6CCN(C(C)=O)CC6)c(OC)n5)c4Cl)c3Cl)cc2OC)CC1 [Example 413, 1-(4-((4-(4-(3-(5-(((1-Acetylpiperidin-4-yl)amino)methyl)-6-methoxypyridin-2-yl)-2-chlorophenyl)-3-chloropyridin-2-yl)-2-methoxybenzyl)amino)piperidin-1-yl)-2-methoxyethan-1-one]
- IC50 [1]: 1.45 nM
- EC50 (human PD-L1): 16.1 nM

SMILES: COc1cc(-c2nccc(-c3cccc(-c4ccc(CNC[C@@H]5CCC(=O)N5)c(OC)n4)c3Cl)c2C)ccc1CNC[C@@H]1CCC(=O)N1 [Example 414, (S)-5-((((6-(2-Chloro-3-(2-(3-methoxy-4-(((((S)-5-oxopyrrolidin-2-yl)methyl)amino)methyl)phenyl)-3-methylpyridin-4-yl)phenyl)-2-methoxypyridin-3-yl)methyl)amino)methyl)pyrrolidin-2-one]
- IC50 [1]: 1.58 nM
- EC50 (human PD-L1): 29.4 nM

SMILES: COc1cc(-c2nccc(-c3cccc(-c4ccc(CN5CC6(CNC(=O)C6)C5)c(OC)n4)c3C)c2C)ccc1CN1CC2(CNC(=O)C2)C1 [Example 415, 2-((2-methoxy-6-(3-(2-(3-methoxy-4-((7-oxo-2,6-diazaspiro[3.4]octan-2-yl)methyl)phenyl)-3-methylpyridin-4-yl)-2-methylphenyl)pyridin-3-yl)methyl)-2,6-diazaspiro[3.4]octan-7-one]
- IC50 [1]: 0.25 nM
- EC50 (human PD-L1): 5100 nM

- IC50 [1]: 6.6 nM
- EC50 (human PD-L1): ≥ 10000 nM
SMILES: COc1cc(-c2nccc(-c3cccc(-c4ccc(CN5CC6(C5)CN(C(C)=O)C6)c(OC)n4)c3C)c2C)ccc1CN1CC2(C1)CN(C(C)=O)C2 [Example 416, 1-(6-((6-(3-(2-(4-((6-Acetyl-2,6-diazaspiro[3.3]heptan-2-yl)methyl)-3-methoxyphenyl)-3-methylpyridin-4-yl)-2-methylphenyl)-2-methoxypyridin-3-yl)methyl)-2,6-diazaspiro[3.3]heptan-2-yl)ethan-1-one]

SMILES: COc1cc(-c2nccc(-c3cccc(-c4ccc(CNC5CCN(C(C)=O)CC5)c(OC)n4)c3Cl)c2Cl)ccc1CNC1CCNCC1 [Example 417, 1-(4-(((6-(2-chloro-3-(3-chloro-2-(3-methoxy-4-((piperidin-4-ylamino)methyl)phenyl)pyridin-4-yl)phenyl)-2-methoxypyridin-3-yl)methyl)amino)piperidin-1-yl)ethan-1-one]
- IC50 [1]: 3.67 nM
- EC50 (human PD-L1): 58.3 nM

SMILES: COc1cc(-c2nccc(-c3cccc(-c4ccc(CNC5CCN(C(=O)c6ccco6)CC5)c(OC)n4)c3Cl)c2Cl)ccc1CNC1CCN(C(=O)c2ccco2)CC1 [Example 421, (4-(((6-(2-Chloro-3-(3-chloro-2-(4-(((1-(furan-2-carbonyl)piperidin-4-yl)amino)methyl)-3-methoxyphenyl)pyridin-4-yl)phenyl)-2-methoxypyridin-3-yl)methyl)amino)piperidin-1-yl)(furan-2-yl)methanone]
- IC50 [1]: 1.86 nM
- EC50 (human PD-L1): 47.7 nM

SMILES: COc1cc(-c2nccc(-c3cccc(-c4ccc(CNC5CCN(C(=O)c6ccccc6)CC5)c(OC)n4)c3Cl)c2Cl)ccc1CNC1CCN(C(=O)c2ccccc2)CC1 [Example 422, (4-(((6-(3-(2-(4-(((1-Benzoylpiperidin-4-yl)amino)methyl)-3-methoxyphenyl)-3-chloropyridin-4-yl)-2-chlorophenyl)-2-methoxypyridin-3-yl)methyl)amino)piperidin-1-yl)(phenyl)methanone]
- IC50 [1]: 0.9 nM
- EC50 (human PD-L1): 75.5 nM

SMILES: COc1cc(-c2nccc(-c3cccc(-c4ccc(CNC5CCN(c6ccccc6)CC5)c(OC)n4)c3Cl)c2Cl)ccc1CNC1CCN(c2ccccc2)CC1 [Example 423, N-((6-(2-Chloro-3-(3-chloro-2-(3-methoxy-4-(((1-phenylpiperidin-4-yl)amino)methyl)phenyl)pyridin-4-yl)phenyl)-2-methoxypyridin-3-yl)methyl)-1-phenylpiperidin-4-amine]
- IC50 [1]: 7.78 nM
- EC50 (human PD-L1): 354 nM

SMILES: COc1cc(-c2nccc(-c3cccc(-c4ccc(CNC5CCN(c6ccncc6)CC5)c(OC)n4)c3Cl)c2Cl)ccc1CNC1CCN(c2ccncc2)CC1 [Example 424, N-((6-(2-Chloro-3-(3-chloro-2-(3-methoxy-4-(((1-(pyridin-4-yl)piperidin-4-yl)amino)methyl)phenyl)pyridin-4-yl)phenyl)-2-methoxypyridin-3-yl)methyl)-1-(pyridin-4-yl)piperidin-4-amine]
- IC50 [1]: 3.59 nM
- EC50 (human PD-L1): 86.6 nM

SMILES: COc1cc(-c2nccc(-c3cccc(-c4ccc(CNC5CCOCC5)c(OC)n4)c3C)c2C)ccc1CNC1CCOCC1 [Example 425, N-(2-Methoxy-4-(4-(3-(6-methoxy-5-(((tetrahydro-2H-pyran-4-yl)amino)methyl)pyridin-2-yl)-2-methylphenyl)-3-methylpyridin-2-yl)benzyl)tetrahydro-2H-pyran-4-amine]
- IC50 [1]: 7.08 nM
- EC50 (human PD-L1): 841 nM

SMILES: COc1cc(-c2nccc(-c3cccc(-c4ccc(CNC5CCOCC5)c(OC)n4)c3C)c2Cl)ccc1CNC1CCOCC1 [Example 426, N-((6-(3-(3-chloro-2-(3-methoxy-4-(((tetrahydro-2H-pyran-4-yl)amino)methyl)phenyl)pyridin-4-yl)-2-methylphenyl)-2-methoxypyridin-3-yl)methyl)tetrahydro-2H-pyran-4-amine]
- IC50 [1]: 4.23 nM
- EC50 (human PD-L1): 98.8 nM

SMILES: COc1cc(-c2nccc(-c3cccc(-c4ccc(CNC5CCN(C(C)=O)CC5)c(OC)n4)c3Cl)c2Cl)ccc1CN(C)C1CCOCC1 [Example 427, 1-(4-(((6-(2-chloro-3-(3-chloro-2-(3-methoxy-4-((methyl(tetrahydro-2H-pyran-4-yl)amino)methyl)phenyl)pyridin-4-yl)phenyl)-2-methoxypyridin-3-yl)methyl)amino)piperidin-1-yl)ethan-1-one]
- IC50 [1]: 8.8 nM
- EC50 (human PD-L1): 25 nM

SMILES: COc1cc(-c2nccc(-c3cccc(-c4ccc(CN5CC6(CNC(=O)C6)C5)c(OC)n4)c3F)c2Cl)ccc1CN1CC2(CNC(=O)C2)C1 [Example 438, 2-(4-(3-chloro-4-(2-fluoro-3-(6-methoxy-5-((7-oxo-2,6-diazaspiro[3.4]octan-2-yl)methyl)pyridin-2-yl)phenyl)pyridin-2-yl)-2-methoxybenzyl)-2,6-diazaspiro[3.4]octan-7-one]
- IC50 [1]: 3.1 nM
- EC50 (human PD-L1): 58.7 nM

- IC50 [1]: 2.74 nM
- EC50 (human PD-L1): 121 nM
SMILES: COc1cc(-c2nccc(-c3cccc(-c4ccc(CNC5CCN(C(C)=O)CC5)c(OC)n4)c3F)c2Cl)ccc1CNC1CCN(C(C)=O)CC1 [Example 439, 1-(4-(((6-(3-(2-(4-(((1-Acetylpiperidin-4-yl)amino)methyl)-3-methoxyphenyl)-3-chloropyridin-4-yl)-2-fluorophenyl)-2-methoxypyridin-3-yl)methyl)amino)piperidin-1-yl)ethan-1-one]

SMILES: COc1cc(-c2nccc(-c3cccc(-c4ccc(CNC5CCOCC5)c(OC)n4)c3F)c2Cl)ccc1CNC1CCOCC1 [Example 440, N-((6-(3-(3-Chloro-2-(3-methoxy-4-(((tetrahydro-2H-pyran-4-yl)amino)-methyl)phenyl)pyridin-4-yl)-2-fluorophenyl)-2-methoxypyridin-3-yl)methyl)tetrahydro-2H-pyran-4-amine]
- IC50 [1]: 9.97 nM
- EC50 (human PD-L1): 214 nM

SMILES: COc1cc(-c2nccc(-c3cccc(-c4ccc(CNC5CCOCC5)c(OC)n4)c3Cl)c2Cl)ccc1CN(C)C1CCOCC1 [Example 441, N-(4-(3-chloro-4-(2-chloro-3-(6-methoxy-5-(((tetrahydro-2H-pyran-4-yl)amino)methyl)pyridin-2-yl)phenyl)pyridin-2-yl)-2-methoxybenzyl)-N-methyltetrahydro-2H-pyran-4-amine]
- IC50 [1]: 5.61 nM
- EC50 (human PD-L1): 149 nM

SMILES: COc1cc(-c2nccc(-c3cccc(-c4ccc(CNC5CCOCC5)c(OC)n4)c3Cl)c2Cl)ccc1CN(C)C1CCN(C(C)=O)CC1 [Example 442, 1-(4-((4-(3-chloro-4-(2-chloro-3-(6-methoxy-5-(((tetrahydro-2H-pyran-4-yl)amino)methyl)pyridin-2-yl)phenyl)pyridin-2-yl)-2-methoxybenzyl)(methyl)amino)piperidin-1-yl)ethan-1-one]
- IC50 [1]: 5.94 nM
- EC50 (human PD-L1): 43.3 nM

SMILES: COCCNCc1ccc(-c2nccc(-c3cccc(-c4ccc(CNCCOC)c(OC)n4)c3Cl)c2Cl)cc1OC [Example 446, N-((6-(2-chloro-3-(3-chloro-2-(3-methoxy-4-(((2-methoxyethyl)amino)methyl)phenyl)pyridin-4-yl)phenyl)-2-methoxypyridin-3-yl)methyl)-2-methoxyethan-1-amine]
- IC50 [1]: 3.75 nM
- EC50 (human PD-L1): 31 nM

SMILES: COc1cc(-c2nccc(-c3cccc(-c4ccc(CNC5CCN(C(C)=O)CC5)c(OC)n4)c3F)c2F)ccc1CNC1CCN(C(C)=O)CC1 [Example 449, 1-(4-(((6-(3-(2-(4-(((1-acetylpiperidin-4-yl)amino)methyl)-3-methoxyphenyl)-3-fluoropyridin-4-yl)-2-fluorophenyl)-2-methoxypyridin-3-yl)methyl)amino)piperidin-1-yl)ethan-1-one]
- IC50 [1]: 12.9 nM
- EC50 (human PD-L1): ≥ 10000 nM
